# Source: ChEMBL document CHEMBL1129758, “Rapid synthesis of novel dipeptide inhibitors of human collagenase and gelatinase using solid phase chemistry” (Bioorg Med Chem Lett, 1996)
# Where a name gives a salt, the structure may show the parent alone. *1 amine or outer side, *2 acyl side, *3 side chain or, on linkers, in order; H or OH if unused. Where a SMILES comes first, the peptide text is derived from it. [ ]: non-standard residue; d: D form. The star is where a group is joined. Hydrocinnamoyl = O=C(CCc1ccccc1)*; 3Pal = N[C@@H](Cc1cccnc1)C(=O)O; 2Thi = N[C@@H](Cc1cccs1)C(=O)O; CO = O=C([*:1])[*:2]; Tfa = O=C(C(F)(F)F)*; NHPh = c1ccc(N*)cc1
# Legend:
# Interstitial collagenase = molecular target: T1, Interstitial collagenase (Homo sapiens, UniProt P03956); experiment: Inhibitory activity against human fibroblast collagenase (MMP-1)
# T1 sequence (P03956 whole entry): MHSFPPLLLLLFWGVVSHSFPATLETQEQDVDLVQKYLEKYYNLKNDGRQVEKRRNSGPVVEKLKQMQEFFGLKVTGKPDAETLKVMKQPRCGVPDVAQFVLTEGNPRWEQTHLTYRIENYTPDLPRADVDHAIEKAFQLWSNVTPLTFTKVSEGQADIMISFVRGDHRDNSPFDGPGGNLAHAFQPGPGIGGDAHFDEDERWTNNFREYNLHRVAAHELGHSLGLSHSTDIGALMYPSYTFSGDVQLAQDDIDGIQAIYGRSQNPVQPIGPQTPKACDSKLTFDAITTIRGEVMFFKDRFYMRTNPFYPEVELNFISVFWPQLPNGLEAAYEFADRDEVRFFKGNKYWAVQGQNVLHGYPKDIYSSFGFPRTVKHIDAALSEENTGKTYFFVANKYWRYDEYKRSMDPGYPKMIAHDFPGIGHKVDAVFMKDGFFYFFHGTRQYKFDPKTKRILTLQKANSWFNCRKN
# [1] = molecular target: Matrix metalloproteinase-9 (Homo sapiens, UniProt P14780); experiment: Compound was tested for its inhibitory activity against 92 kD gelatinase (MMP-9)
# Chain of Matrix metalloproteinase-9 (P14780 whole entry): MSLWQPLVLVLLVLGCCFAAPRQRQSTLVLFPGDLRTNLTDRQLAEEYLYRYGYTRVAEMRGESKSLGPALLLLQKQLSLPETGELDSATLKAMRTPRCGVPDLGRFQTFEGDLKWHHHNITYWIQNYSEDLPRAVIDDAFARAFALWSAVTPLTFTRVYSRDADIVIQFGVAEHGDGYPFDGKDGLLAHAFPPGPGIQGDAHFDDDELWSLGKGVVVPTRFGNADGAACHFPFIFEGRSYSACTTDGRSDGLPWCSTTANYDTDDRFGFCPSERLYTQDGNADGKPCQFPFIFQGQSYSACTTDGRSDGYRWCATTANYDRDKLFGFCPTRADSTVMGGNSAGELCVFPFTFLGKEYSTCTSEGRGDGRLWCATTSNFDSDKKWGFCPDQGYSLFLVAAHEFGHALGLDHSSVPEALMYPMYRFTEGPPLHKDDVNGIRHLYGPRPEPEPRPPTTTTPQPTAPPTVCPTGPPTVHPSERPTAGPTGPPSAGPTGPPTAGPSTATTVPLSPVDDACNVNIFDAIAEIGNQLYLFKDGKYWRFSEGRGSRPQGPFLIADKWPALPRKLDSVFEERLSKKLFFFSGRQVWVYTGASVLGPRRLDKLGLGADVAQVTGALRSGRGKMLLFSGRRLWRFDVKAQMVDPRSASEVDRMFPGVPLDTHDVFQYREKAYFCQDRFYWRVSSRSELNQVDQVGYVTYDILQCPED
IC50 (Interstitial collagenase),IC50 [1],SMILES
215 nM,19 nM,NC(=O)[C@H](Cc1ccccc1)NC(=O)[C@H](CS)NC(=O)c1ccc2c(c1)OCO2
453 nM,,NC(=O)[C@H](Cc1cccnc1)NC(=O)[C@H](CC(=O)O)NC(=O)c1ccc2[nH]nnc2c1
93 nM,41 nM,NC(=O)[C@H](Cc1ccccc1)NC(=O)[C@H](CS)NC(=O)c1ccncc1
12 nM,42 nM,NC(=O)[C@H](Cc1cccnc1)NC(=O)[C@H](CS)NC(=O)c1ccc2[nH]nnc2c1
171 nM,84 nM,NC(=O)[C@H](Cc1ccccc1)NC(=O)[C@H](CS)NC(=O)c1ccoc1
598 nM,34 nM,NC(=O)[C@H](Cc1ccccc1)NC(=O)[C@H](CS)NC(=O)COc1ccccc1
26 nM,71 nM,NC(=O)[C@H](Cc1ccccc1)NC(=O)[C@H](CS)NC(=O)c1cn[nH]c1
105 nM,49 nM,NC(=O)[C@H](Cc1ccccc1)NC(=O)[C@H](CS)NC(=O)c1cccs1
425 nM,21 nM,NC(=O)[C@H](Cc1ccccc1)NC(=O)[C@H](CS)NC(=O)c1ccc(-c2ccccc2)cc1
130 nM,82 nM,NC(=O)[C@H](Cc1ccccc1)NC(=O)[C@H](CS)NC(=O)c1ccsc1
83 nM,41 nM,NC(=O)[C@H](Cc1ccccc1)NC(=O)[C@H](CS)NC(=O)c1ccc(=O)[nH]c1
8 nM,24 nM,NC(=O)[C@H](Cc1ccccc1)NC(=O)[C@H](CS)NC(=O)c1ccc2[nH]nnc2c1
26 nM,71 nM,NC(=O)[C@H](Cc1cccnc1)NC(=O)[C@H](CS)NC(=O)c1cn[nH]c1
250 nM,15 nM,NC(=O)[C@H](Cc1ccccc1)NC(=O)[C@H](CS)NC(=O)c1ccc(-n2cccc2)nc1
147 nM,80 nM,CN(C)c1ccc(C(=O)N[C@@H](CS)C(=O)N[C@@H](Cc2ccccc2)C(N)=O)cc1
34 nM,102 nM,NC(=O)[C@H](Cc1cccs1)NC(=O)[C@H](CS)NC(=O)c1ccc2nn[nH]c2c1
> 100000 nM,,CC(=O)N[C@@H](CS)C(=O)N[C@@H](Cc1ccccc1)C(N)=O (Ac-Cys-Phe-NH2)
5000 nM,,CC(=O)N[C@@H](CS)C(=O)N[C@@H](Cc1c[nH]c2ccccc12)C(N)=O (Ac-Cys-Trp-NH2)
7000 nM,,CC(=O)N[C@@H](CS)C(=O)N[C@H](C(N)=O)C(C)C (Ac-Cys-Val-NH2)
4000 nM,,CC(=O)N[C@@H](CS)C(=O)N[C@@H](Cc1cccs1)C(N)=O (Ac-Cys-[2Thi]-NH2)
4000 nM,,CC(=O)N[C@@H](CS)C(=O)N[C@@H](Cc1cccnc1)C(N)=O (Ac-Cys-[3Pal]-NH2)
3500 nM,38 nM,NC(=O)[C@H](Cc1ccccc1)NC(=O)[C@H](CS)NC(=O)CCc1ccccc1 (Hydrocinnamoyl-Cys-Phe-NH2)
40 nM,> 1000 nM,NC(=O)[C@H](Cc1ccccc1)NC(=O)[C@H](CS)NC(=O)C(F)(F)F (Tfa-Cys-Phe-NH2)
63 nM,> 1000 nM,COC(=O)[C@H](Cc1ccccc1)NC(=O)[C@H](CS)NC(=O)C(F)(F)F (Tfa-Cys-Phe-OMe)
40 nM,11 nM,NC(=O)[C@H](Cc1ccccc1)NC(=O)[C@H](CS)NC(=O)Nc1ccccc1 ({NHPh-CO}-Cys-Phe-NH2)
